Experimental data as given in US20240002388A1, “PYRIMIDINONE COMPOUNDS AND USES THEREOF” (HUTCHISON MEDIPHARMA LIMITED, priority 2020, published 2024).

target: RIPK1 recombination protein (Homo sapiens (Human), UniProt Q13546); test: RIPK1 kinase activity assay (ADP-Glo); format: biochemical; conditions: RIPK1 kinase activity, ADP-Glo, 10 μM ATP
Procedure: RIPK1 recombination protein: synthesized by Shanghai Medicilon Inc. under the commission by Hutchison MediPharma Limited (50 g of cell pellet was resuspended in 250 mL of lysis buffer (50 mM Tris, pH 7.5, 250 mM NaCl, 1 mM DTT, protease inhibitor 1:50), the cells were ultrasonically lysed using a sonicator (the power set to 4) on ice for 3×30 minutes; then centrifugation was carried out at 4° C., at 15,000 g for 30 minutes to clarify the suspension, the soluble pellet was resuspended into 10 mL of glutathione agarose, and incubated at 4° C. for 2 hours; then the beads were loaded into the column and washed with lysis buffer (no protease inhibitors) to baseline, and eluted with 20 mM of reduced glutathione (50 mM Tris, pH 8). The fractions identified by SDS-PAGE as containing the protein of interest were collected (10 mL of total volume), concentrated to about 5 mL and loaded into 300 mL superdex75 column (GE Healthcare) equilibrated with buffer (50 mM Tris, pH 7.5, 150 mM NaCl, 1 mM DTT, 10% glycerol, pH 7.5). RIP1 protein was eluted as a dimer from the superdex75 column. The protein concentration was determined by the Bradford assay using BSA as the standard. The yield was 12.5 mg at 0.63 mg/mL. The protein was aliquoted and frozen at −80° C. for later use.
ADP-Glo Kinase kit can be used to measure ADP level in kinase activity assay so as to distinguish the inhibitory effects of different compounds on RIPK1 kinase activity. The ADP-Glo assay was usually divided into three steps. Firstly, the kinase converted ATP to ADP and phosphorylated the substrate at the same time; secondly, ATP digestion reagent was added to degrade all ATP in the reaction system; finally, a detection reagent was added to reduce ADP to ATP, and energy from ATP was transferred to […] which thus emitting a chemical luminescence that can be detected. Assay procedure can refer to manufacture's technical manual.
(2) Reagent Preparation: • 1.33× kinase buffer: 5× kinase buffer stock (250 mM of NaCl, 150 mM of MgCl2, 2.5 mg/ml BSA (bovine serum albumin), 0.1% CHAPS (3-[(3-cholamidopropyl)-dimethyl-ammonio]-1-propane sulfonate), and 5 mM of dithiothreitol) was diluted with water to 1.33× kinase buffer; • RIPK1 enzyme solution: the kinase was dissolved in 1.33× kinase buffer to make 40 nM as the final working concentration; • ATP solution: 10 mM ATP stock solution in water was dissolved in 1.33× kinase buffer to make 10 μM as the final working concentration; • 4× compound preparation: the compound was diluted in a 3-fold gradient, and finally 4% DMSO aqueous solution containing different concentrations of the compound was obtained. The final concentrations of the test compound were 10, 3.33, 1.11, 0.37, 0.12, 0.04, 0.014, and 0.005 μM.
The assay set up two control groups, one was 100% inhibition group (no enzyme treatment), another was 0% inhibition group (no inhibitor treatment), each control group contained 8 replicate wells. 2.5 μl of serially diluted compound was added to each well of a 384-well plate, with double replicate wells, and 4% DMSO solution was added to control wells. Then 5 μl of RIPK1 enzyme solution was added to each well except 100% inhibition control, 5 ul of buffer was added to 100% inhibition control, after that, 2.5 μl of ATP solution was added to all wells, the plate was vibrated at 1000 rpm for 30 seconds to perform transient centrifuge; finally the 384-well assay plate was put in the shaking incubator, and incubated at room temperature for 3 hours. After the enzymatic reaction was completed, 5 μl of ATP depletion reagent was added to each well, the mixture was centrifuged transiently, then the 384-well assay plate was put in the shaking incubator, and incubated at room temperature for 1 hour. 5 μl of ADP detection reagent was added to each well, and the mixture was centrifuged transiently, and incubated at room temperature for 0.5 hour. […]

Chain of RIPK1 recombination protein (Q13546 other isoform, or with tags, fused parts or gaps): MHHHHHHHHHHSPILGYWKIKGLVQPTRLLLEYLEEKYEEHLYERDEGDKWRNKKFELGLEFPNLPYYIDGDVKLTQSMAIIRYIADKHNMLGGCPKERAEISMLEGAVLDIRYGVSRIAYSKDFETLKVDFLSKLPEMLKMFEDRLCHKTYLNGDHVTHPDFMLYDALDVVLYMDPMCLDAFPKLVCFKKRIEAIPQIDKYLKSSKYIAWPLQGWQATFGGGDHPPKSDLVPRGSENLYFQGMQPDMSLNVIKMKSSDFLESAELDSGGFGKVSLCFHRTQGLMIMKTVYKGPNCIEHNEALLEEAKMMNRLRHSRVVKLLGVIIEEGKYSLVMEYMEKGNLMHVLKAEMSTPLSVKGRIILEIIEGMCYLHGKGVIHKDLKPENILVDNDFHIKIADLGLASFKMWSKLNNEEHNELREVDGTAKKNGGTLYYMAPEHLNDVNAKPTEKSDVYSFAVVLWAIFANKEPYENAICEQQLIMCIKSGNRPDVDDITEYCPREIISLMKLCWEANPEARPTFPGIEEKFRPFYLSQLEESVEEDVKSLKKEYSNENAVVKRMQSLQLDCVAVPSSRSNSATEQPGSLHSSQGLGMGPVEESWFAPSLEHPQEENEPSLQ

Compound | IC50 [nM]
CC(C)n1ncc2cnc(C(=O)NC3(c4ccc(-c5cncn([C@@H](C)C6CC6)c5=O)cc4)CC3)nc21 [Compound 85, (S)—N-(1-(4-(1-(1-cyclopropylethyl)-6-oxo-1,6-dihydropyrimidin-5-yl)phenyl)cyclopropyl)-1-i-propyl-1H-pyrazolo[3,4-d]pyrimidine-6-carboxamide] | 30
Cn1cncc(-c2ccc(C3(NC(=O)c4cc(Cc5ccccc5)on4)CC3)cc2)c1=O [Compound 5] | 57
CC(C)n1cncc(-c2ccc(C3(NC(=O)c4ncc5cnn(CC6CC6)c5n4)CC3)cc2F)c1=O [Compound 73] | 52
CC(C)n1ncc2cnc(C(=O)NC3(c4ccc(-c5cncn(C6CCC6)c5=O)cc4)CC3)nc21 [Compound 42] | 56
CC(C)n1cncc(-c2ccc(C3(NC(=O)c4ncc5cnn(C(C)C)c5n4)CC3)cc2F)c1=O [Compound 35] | 47
CC(C)n1cncc(-c2ccc(C3(NC(=O)c4ncc5cnn(-c6ccccn6)c5n4)CC3)cc2)c1=O [Compound 63] | 37
C[C@H](c1ccccc1)n1cnc(C(=O)NC2(c3ccc(-c4cncn(C)c4=O)cc3)CC2)n1 [Compound 55, (R)—N-(1-(4-(1-methyl-6-oxo-1,6-dihydropyrimidin-5-yl)phenyl)cyclopropyl)-1-(1-phenylethyl)-1H-1,2,4-triazole-3-carboxamide] | 23
Cn1cncc(-c2ccc(C3(NC(=O)c4ncn(Cc5ccccc5)n4)CC3)cc2)c1=O [Compound 8] | 22
CC(C)n1ncc2cnc(C(=O)NC3(c4ccc(-c5cncn(C)c5=O)cn4)CC3)nc21 [Compound 2] | 63
CCn1cncc(-c2ccc(C3(NC(=O)c4ncc5cnn(C(C)C)c5n4)CC3)cc2)c1=O [Compound 37] | 41
CC(C)n1ncc2cnc(C(=O)NC3(c4ccc(-c5cncn([C@@H](C)C(F)(F)F)c5=O)cc4F)CC3)nc21 (stereo in doubt) [Compound 47] | 29
CC[C@H](C)n1cncc(-c2ccc(C3(NC(=O)c4ncc5cnn(C(C)C)c5n4)CC3)cc2)c1=O [Compound 43] | 32
CC(C)n1cncc(-c2ccc(C3(NC(=O)c4ncc5cnn([C@H](C)C6CC6)c5n4)CC3)cc2)c1=O [Compound 89, (R)-1-(1-cyclopropylethyl)-N-(1-(4-(1-i-propyl-6-oxo-1,6-dihydropyrimidin-5-yl)phenyl)cyclopropyl)-1H-pyrazolo[3,4-d]pyrimidine-6-carboxamide] | 48
C[C@@H](n1cncc(-c2ccc(C3(NC(=O)c4ncc5cnn(CC6CC6)c5n4)CC3)cc2)c1=O)C(F)(F)F [Compound 70] | 51
CC(C)n1ncc2cnc(C(=O)NC3(c4ccc(-c5cncn(C6CCOC6)c5=O)cc4)CC3)nc21 (stereo in doubt) [Compound 81, (S)-1-i-propyl-N-(1-(4-(6-oxo-1-(tetrahydrofuran-3-yl)-1,6-dihydropyrimidin-5-yl)phenyl)cyclopropyl)-1H-pyrazolo[3,4-d]pyrimidine-6-carboxamide] | 39
CC(C)n1ncc2cnc(C(=O)NC3(c4ccc(-c5cncn(CC6CC6)c5=O)c(F)c4F)CC3)nc21 [Compound 95] | 28
CC(C)n1ncc2cnc(C(=O)NC3(c4ccc(-c5cncn(CC6CCC6)c5=O)cc4)CC3)nc21 [Compound 66] | 48
CC(C)n1ncc2cnc(C(=O)NC3(c4ccc(-c5cncn(C6CC(F)(F)C6)c5=O)cc4)CC3)nc21 [Compound 65] | 36

Compound | IC50 [nM]
CC(C)n1ncc2cnc(C(=O)NC3(c4ccc(-c5cncn(C6(C)CC6)c5=O)cc4)CC3)nc21 [Compound 78] | 33
CC(C)n1cncc(-c2cc(F)c(C3(NC(=O)c4ncc5cnn(C(C)C)c5n4)CC3)c(F)c2)c1=O [Compound 92] | 104
CC(C#N)n1cncc(-c2ccc(C3(NC(=O)c4ncc5cnn(C(C)C)c5n4)CC3)cc2)c1=O (stereo in doubt) [Compound 83, (S)—N-(1-(4-(1-(1-cyanoethyl)-6-oxo-1,6-dihydropyrimidin-5-yl)phenyl)cyclopropyl)-1-i-propyl-1H-pyrazolo[3,4-d]pyrimidine-6-carboxamide] | 47
CC(C)n1cncc(-c2ccc(C3(NC(=O)c4nc5n(n4)[C@H](c4ccccc4)CC5)CC3)cc2)c1=O [Compound 16] | 25
CC(C)n1cncc(-c2ccc(C3(NC(=O)c4ncc5cnn(CC6CC6)c5n4)CC3)c(F)c2)c1=O [Compound 72] | 65
CC(C)n1cncc(-c2ccc(C3(NC(=O)c4ncc5cnn(CC6CC6)c5n4)CC3)cc2)c1=O [Compound 61] | 14
CC(C)n1ncc2cnc(C(=O)NC3(c4ccc(-c5cncn(C)c5=O)c(F)c4)CC3)nc21 [Compound 23, N-(1-(3-fluoro-4-(1-methyl-6-oxo-1,6-dihydropyrimidin-5-yl)phenyl)cyclopropyl)-1-isopropyl-1H-pyrazolo[3,4-d]pyrimidine-6-carboxamide] | 49
CC(C)n1ncc2cnc(C(=O)NC3(c4ccc(-c5cncn(C6CCOCC6)c5=O)cc4)CC3)nc21 [Compound 77] | 42
CC(C)n1ncc2cnc(C(=O)NC3(c4ccc(-c5cncn(C6CCOC6)c5=O)cc4)CC3)nc21 (stereo in doubt) [Compound 80, (R)-1-i-propyl-N-(1-(4-(6-oxo-1-(tetrahydrofuran-3-yl)-1,6-dihydropyrimidin-5-yl)phenyl)cyclopropyl)-1H-pyrazolo[3,4-d]pyrimidine-6-carboxamide] | 42
C[C@H](n1cncc(-c2ccc(C3(NC(=O)c4ncc5cnn(CC6CC6)c5n4)CC3)cc2)c1=O)C(F)(F)F [Compound 68] | 43
CC(C)n1ncc2cnc(C(=O)NC3(c4ccc(-c5cncn(CC6CC6)c5=O)cc4)CC3)nc21 [Compound 36] | 42
CC(C)n1cncc(-c2ccc(C3(NC(=O)c4ncc5cnn(C(C)C)c5n4)CC3)c(F)c2Cl)c1=O [Compound 91] | 72
CC(C)n1ncc2cnc(C(=O)NC3(c4ccc(-c5cncn([C@H]6C[C@@H](F)C6)c5=O)cc4)CC3)nc21 [Compound 88, N-(1-(4-(1-(cis-3-fluorocyclobutyl)-6-oxo-1,6-dihydropyrimidin-5-yl)phenyl)cyclopropyl)-1-i-propyl-1H-pyrazolo[3,4-d]pyrimidine-6-carboxamide] | 41
CC(C)n1cncc(-c2ccc(C3(NC(=O)c4ncn(Cc5ccccc5)n4)CC3)cc2)c1=O [Compound 17] | 15
CC(C)n1ncc2cnc(C(=O)NC3(c4ccc(-c5cncn(C)c5=O)cc4)CC3)cc21 [Compound 28, 1-isopropyl-N-(1-(4-(1-methyl-6-oxo-1,6-dihydropyrimidin-5-yl)phenyl)cyclopropyl)-1H-pyrazolo[4,3-c]pyridine-6-carboxamide] | 95
CC(C)n1ncc2cnc(C(=O)NC3(c4ccc(-c5cncn(C)c5=O)c(Cl)c4)CC3)nc21 [Compound 25] | 53
CC(C)n1cncc(-c2ccc(C3(NC(=O)c4ncc5cnn(C(C)C6CC6)c5n4)CC3)cc2)c1=O (racemic) [Compound 59, 1-(1-cyclopropylethyl)-N-(1-(4-(1-i-propyl-6-oxo-1,6-dihydropyrimidin-5-yl)phenyl)cyclopropyl)-1H-pyrazolo[3,4-d]pyrimidine-6-carboxamide] | 26
CC(C)n1cncc(-c2ccc(C3(NC(=O)c4ncc5cnn([C@@H](C)C6CC6)c5n4)CC3)cc2)c1=O [Compound 90, (S)-1-(1-cyclopropylethyl)-N-(1-(4-(1-i-propyl-6-oxo-1,6-dihydropyrimidin-5-yl)phenyl)cyclopropyl)-1H-pyrazolo[3,4-d]pyrimidine-6-carboxamide] | 54
